# From US20250049812A1, “Compounds that Inhibit Necroptosis and Their Preparation Methods” (SHANGHAI INSTITUTE OF ORGANIC CHEMISTRY, CHINESE ACADEMY OF …, priority 2021, published 2025)
# Tested on: Jurkat FADD (−/−) Cells
# Assay: TNF-α induced necroptosis of Jurkat FADD-deficient cells (CellTiter-Glo cell survival)
# Assay type: cell-based, human
# Conditions: Homo sapiens, Jurkat, 13 h
# Method: 1. Cell Activity Testing System (TNF-α Induces the Necroptosis of Jurkat Cells, the Human Leukemia Cells Deficient in FADD).
# (1) Cell culture: Jurkat FADD-deficient cells were cultured in an RPMI 1640 medium with 10% fetal bovine serum (FBS), 100 U/mL penicillin, and 100 […]. The cells were cultured in a cell culture incubator at 37° C. with 5% CO2. And all the cells were cryopreserved in a complete medium containing 5-10% DMSO. Medium change and passage were performed 3-4 times per week.
# (4) Experimental scheme: The system of TNF-α inducing the necroptosis of Jurkat FADD-deficient cells was used to screen for compounds with RIPKl kinase inhibitory activity.
# Jurkat FADD-deficient cells were evenly inoculated into a 384-well plate with each well added with a 40 μL complete culture medium, followed by the addition of 5 μL of the under-testing compound to each well. The initial concentration of the compounds was set at 25 μM (for some compounds with higher activity, the initial concentration was set at 0.5 μM), with a three-fold gradient dilution, totaling 12 gradient points. Three replicate wells were set for each compound. In addition, there was a blank control group and a control group with TNFα stimulation only. After the compound was added, the mixture needed to be centrifuged and incubated in a cell culture incubator at 37° C. containing 5% CO2 for 1 hour. After that, 5 μL of 5 ng/mL TNFα was added to stimulate the occurrence of necroptosis. After centrifugation and mixing, the mixture was placed in the cell culture incubator for 13 hours (until the cell death rate reaches 65% in the group with only TNF-α), with a total volume of 50 μL per well. Then, the steps below were followed to test the cell survival rate.
# The CellTiter-Glo® Buffer was removed from the reagent kit, equilibrated to room temperature, and used to dissolve the CellTiter-Glo® Substrate. The CellTiter-Glo® Reagent obtained could be directly used for the experiment.
# 15 μL of CellTiter-Glo® Reagent which has been equilibrated to room temperature was added to each well, and incubated in the dark for 15 minutes. After that, a microplate reader (Enspire Multimode Plate Reader of PerkinElmer, USA) was used to measure the chemiluminescence.
row,Compound,IC50 [µM]
1,"CN1C(=O)[C@@H](NC(=O)c2nnc(Cc3ccccc3)[nH]2)Cn2cc(C(=O)O)c3cccc1c32 [T-94, (S)-3-(5-benzyl-4H-1,2,4-triazole-3-carboxamide)-1-methyl-2-oxo-1,2,3,4-tetrahydro-[1,4] diazabicyclo[3,2,1-hi] indole-7-carboxylic Acid]",> 1
2,"COC(=O)C(=O)c1cn2c3c(cccc13)N(C)C(=O)[C@@H](NC(=O)c1nnc(Cc3ccccc3)[nH]1)C2 [T-92, Methyl(S)-2-(3-(5-benzyl-4H-1,2,4-triazole-3-carboxamide)-1-methyl-2-oxo-1,2,3,4-tetrahydro-[1,4]diazepine [3,2,1-hi]indol-7-yl)-2-oxoacetic Acid]",> 1
3,"CN1C(=O)[C@@H](NC(=O)c2nnc(Cc3ccccc3)[nH]2)Cn2cc(C(=O)C(F)(F)F)c3cccc1c32 [T-93, (S)-5-benzyl-N-(1-methyl-2-oxo-7-(2,2,2-trifluoroacetyl)-1,2,3,4-tetrahydro-[1,4]diazepine [3,2,1-hi]indol-3-yl)-4H-1,2,4-triazole-3-carboxamide]",0.1 to 1

# Same assay, conditions: Homo sapiens; TNF-α induced necroptosis, Jurkat FADD-deficient cells, 13 hours, CellTiter-Glo; read-out: IC50
row,Compound,IC50 [µM]
1,"CC(C)n1nccc1-c1cn2c3c(cccc13)N(C)C(=O)C(NC(=O)c1nnc(Cc3ccccc3)[nH]1)C2 (racemic) [T-90, (±)-5-benzyl-N-(7-(1-isopropyl-1H-pyrazol-5-yl)-1-methyl-2-oxo-1,2,3,4-tetrahydro-1,4-diazepine [3,2,1-hi]indol-3-yl)-4H-1,2,4-triazole-3-carboxamide]",< 0.01
2,"COc1cccnc1-n1cc2c3c(cccc31)N(C)C(=O)C(NC(=O)c1nnc(Cc3ccccc3)[nH]1)C2 (racemic) [T-41, (±)-5-benzyl-N-(6-(3-methoxypyridin-2-yl)-1-methyl-2-oxo-2,3,4,6-tetrahydro-1H-azacyclo [4,3,2-cd]indol-3-yl)-4H-1,2,4-triazole-3-carboxamide]",< 0.01
3,"CN1C(=O)C(NC(=O)c2ncc(Cc3ccccc3)o2)Cn2ccc3cccc1c32 (racemic) [T-2, (±)-5-benzyl-N-(1-methyl-2-oxy-1,2,3,4-tetrahydro-[1,4]diazepino [3,2,1-hi]indol-3-yl) oxazole-2-carboxamide]",< 0.01
4,"CN1C(=O)C(NC(=O)c2nnc(Cc3ccccc3)[nH]2)Cn2cc(-c3ccnc(C(F)(F)F)c3)c3cccc1c32 (racemic) [T-77, (±)-5-benzyl-N-(1-methyl-2-oxo-7-(2-(trifluoromethyl)pyridin-4-yl)-1,2,3,4-tetrahydro-[1,4]diazepino [3,2,1-hi]indol-3-yl)-4H-1,2,4-triazole-3-carboxamide]",0.1 to 1
5,"Cc1noc(C)c1-c1cn2c3c(cccc13)N(C)C(=O)C(NC(=O)c1nnc(Cc3ccccc3)[nH]1)C2 (stereo not drawn) [T-86, 5-benzyl-N-(7-(3,5-dimethylisoxazol-4-yl)-1-methyl-2-oxo-1,2,3,4-tetrahydro-[1,4]diazepine[3,2,1-hi]indol-3-yl)-4H-1,2,4-triazole-3-carboxamide]",< 0.01
6,"CNS(=O)(=O)c1cccnc1-n1cc2c3c(cccc31)N(C)C(=O)C(NC(=O)c1nnc(Cc3ccccc3)[nH]1)C2 (racemic) [T-75, (±)-5-benzyl-N-(1-methyl-6-(3-(N-methylsulfamoyl)pyridin-2-yl)-2-oxo-2,3,4,6-tetrahydro-1H-azacyclo [4,3,2-cd]indol-3-yl)-4H-1,2,4-triazole-3-carboxamide]",0.01 to 0.1
7,"CN1C(=O)C(NC(=O)c2nnc(Cc3ccccc3)[nH]2)Cn2cc(C#N)c3cccc1c32 (racemic) [T-76, (±)-5-benzyl-N-(7-cyano-1-methyl-2-oxo-1,2,3,4-tetrahydro-[1,4]diazepino [3,2,1-hi]indol-3-yl)-4H-1,2,4-triazole-3-carboxamide]",0.01 to 0.1
8,"CN1C(=O)[C@@H](NC(=O)c2nnc(Cc3ccccc3)[nH]2)Cc2n[nH]c3cccc1c23 [T-72, (S)-5-benzyl-N-(6-methyl-7-oxo-6,7,8,9-tetrahydro-2H-azacyclo [4,3,2-cd]indazol-8-yl)-4H-1,2,4-triazole-3-carboxamide]",0.1 to 1
9,"CN1C(=O)C(NC(=O)c2nnc(Cc3ccccc3)[nH]2)Cc2cn(-c3ncccc3O)c3cccc1c23 (racemic) [T-47, (±)-5-benzyl-N-(6-(3-hydroxypyridin-2-yl)-1-methyl-2-oxo-2,3,4,6-tetrahydro-1H-azacyclo [4,3,2-cd]indol-3-yl)-4H-1,2,4-triazole-3-carboxamide]",0.1 to 1
10,"CN1C(=O)C(NC(=O)c2ncc(Cc3ccccc3)o2)Cc2cn(-c3ncccc3C(F)(F)F)c3cccc1c23 (racemic) [T-63, (±)-5-benzyl-N-(1-methyl-2-oxo-6-(3-(trifluoromethyl)pyridin-2-yl)-2,3,4,6-tetrahydro-1H-azacyclo [4,3,2-cd]indol-3-yl) oxazole-2-carboxamide]",< 0.01
11,"Cc1cccnc1-n1cc2c3c(cccc31)N(C)C(=O)C(NC(=O)c1nnc(Cc3ccccc3)[nH]1)C2 (racemic) [T-44, (±)-5-benzyl-N-(1-methyl-6-(3-methylpyridin-2-yl)-2-oxo-2,3,4,6-tetrahydro-1H-azacyclo [4,3,2-cd]indol-3-yl)-4H-1,2,4-triazole-3-carboxamide]",< 0.01
12,"COCCn1cc2c3c(cccc31)N(C)C(=O)C(NC(=O)c1nnc(Cc3ccccc3)[nH]1)C2 (racemic) [T-28, (±)-5-benzyl-N-(6-(2-methoxyethyl)-1-methyl-2-oxo-2,3,4,6-tetrahydro-1H-azacyclo [4,3,2-cd]indol-3-yl)-4H-1,2,4-triazole-3-carboxamide]",< 0.01
13,"COC(=O)c1nccnc1-n1cc2c3c(cccc31)N(C)C(=O)C(NC(=O)c1nnc(Cc3ccccc3)[nH]1)C2 (racemic) [T-50, (±)-3-(3-(5-benzyl-4H-1,2,4-triazole-3-carboxamide)-1-methyl-2-oxo-1,2,3,4-tetrahydro-6H-azacyclo [4,3,2-cd]indol-6-yl)methyl pyrazine-2-carboxylate]",< 0.01
14,"CN1C(=O)C(NC(=O)c2nnc(Cc3ccccc3)[nH]2)Cc2cn(-c3ncccc3OC(F)(F)F)c3cccc1c23 (racemic) [T-105, (±)-5-benzyl-N-(1-methyl-2-oxo-6-(3-(trifluoromethoxy)pyridin-2-yl)-2,3,4,6-tetrahydro-1H-azacyclo [4,3,2-cd]indol-3-yl)-4H-1,2,4-triazole-3-carboxamide]",< 0.01
15,"CN1C(=O)C(NC(=O)c2nnc(Cc3ccccc3)[nH]2)Cn2ccc3cc(Br)cc1c32 (racemic) [T-6, (±)-5-benzyl-N-(9-bromo-1-methyl-2-oxo-1,2,3,4-tetrahydro-[1,4]diazepino [3,2,1-hi]indol-3-yl)-4H-1,2,4-triazole-3-carboxamide]",0.1 to 1
16,"CN1C(=O)C(NC(=O)c2nnc(Cc3ccccc3)[nH]2)Cc2cn(Cc3cnn(C)c3)c3cccc1c23 (racemic) [T-35, (±)-5-benzyl-N-(1-methyl-6-((1-methyl-1H-pyrazol-4-yl)methyl)-2-oxo-2,3,4,6-tetrahydro-1H-azacyclo [4,3,2-cd]indol-3-yl)-4H-1,2,4-triazole-3-carboxamide]",< 0.01
17,"Cc1ccsc1-c1cn2c3c(cccc13)N(C)C(=O)C(NC(=O)c1nnc(Cc3ccccc3)[nH]1)C2 (racemic) [T-91, (±)-5-benzyl-N-(1-methyl-7-(3-methylthiophen-2-yl)-2-oxo-1,2,3,4-tetrahydro-[1,4]diazepine [3,2,1-hi]indol-3-yl)-4H-1,2,4-triazole-3-carboxamide]",0.01 to 0.1
18,"CN1C(=O)C(NC(=O)c2nnc(Cc3ccccc3)[nH]2)Cc2cn(C(=O)C(C)(C)C)c3cccc1c23 (racemic) [T-39, (±)-5-benzyl-N-(1-methyl-2-oxo-6-pivaloyl-2,3,4,6-tetrahydro-1H-azacyclo [4,3,2-cd]indol-3-yl)-4H-1,2,4-triazole-3-carboxamide]",0.01 to 0.1
19,"CN1C(=O)C(NC(=O)c2nnc(Cc3ccccc3)[nH]2)Cc2cn(CC3CC3)c3cccc1c23 (racemic) [T-22, (±)-5-benzyl-N-(6-(cyclopropylmethyl)-1-methyl-2-oxo-2,3,4,6-tetrahydro-1H-azacyclo [4,3,2-cd]indol-3-yl)-4H-1,2,4-triazole-3-carboxamide]",0.01 to 0.1

# Same assay, conditions: TNF-α induced necroptosis, Jurkat FADD-deficient cells, 13 hours, CellTiter-Glo; read-out: IC50
row,Compound,IC50 [µM]
1,"(±)-5-(3-(5-benzyl-4H-1,2,4-triazole-3-carboxamido)-1-methyl-2-oxo-1,2,3,4-tetrahydro-6H-azacyclo [4,3,2-cd] indol-6-yl)oxazole-4-carboxylate [T-98]",< 0.01
2,"CN1C(=O)[C@@H](NC(=O)c2nnc(Cc3ccccc3)[nH]2)Cn2ccc3c(-c4c[nH]nc4C(F)(F)F)ccc1c32 [T-113, (S)-5-benzyl-N-(1-methyl-2-oxo-7-(3-(trifluoromethyl)-1H-pyrazol-4-yl)-1,2,3,4-tetrahydro-[1,4]diazepine [3,2,1-hi]indol-3-yl)-4H-1,2,4-triazole-3-carboxamide]",< 0.01
